# Columns and labels:
# in vivo = details: Sprague-Dawley, rat
# Brain [1] = details: rat, 5 h, 0.1 µM
# [2] = Dissociation constant, pKa of the basic compound by capillary electrophoresis-mass spectrometry analysis; assay type: physicochemical
# in vitro = details: Sprague-Dawley, rat, brain homogenate
# Brain [3] = experiment: Drug uptake in Sprague-Dawley rat brain slices in presence of 50 pM to 50 nM of monensin; assay type: ADME, tissue-based
# Brain [4] = experiment: Unbound volume of distribution in Sprague-Dawley rat brain slices at 100 nM after 5 hrs in presence of 10 uM of cyclosporine; assay type: ADME, tissue-based; details: 0.1 µM
# Brain [5] = experiment: Drug uptake in Sprague-Dawley rat brain slices in presence of 50 nM of monensin; assay type: ADME, tissue-based
# Brain [6] = experiment: Drug uptake in Sprague-Dawley rat brain slices in presence of 1 uM of decynium-22; assay type: ADME, tissue-based
# Brain [7] = details: rat, in vivo, 5 h, 0.1 µM
# Description: Drug uptake in Sprague-Dawley rat brain slices at 100 nM after 5 hrs in presence of 10 uM of fumitremorgin-C
# Brain [8] = details: rat, in vivo, 5 h, 0.1 µM; remark: listed apart in the source
# Description: Drug uptake in Sprague-Dawley rat brain slices at 100 nM after 5 hrs in presence of 20 uM of MK-571
# Brain [9] = details: rat, in vivo, 5 h, 0.1 µM; remark: listed apart in the source
# Description: Drug uptake in Sprague-Dawley rat brain slices at 100 nM after 5 hrs in presence of 10 uM of fumitremorgin-C and 20 uM of MK-571
# Brain [10] = experiment: Drug uptake in Sprague-Dawley rat brain slices at 100 nM after 5 hrs in presence of 10 uM of cyclosporine; assay type: ADME, tissue-based; details: 0.1 µM
# Brain [11] = details: Sprague-Dawley, rat, brain homogenate, 5 µM
# Description for physchem: Dissociation constant, pKa of the acidic compound by capillary electrophoresis-mass spectrometry analysis
Compound,Kp uu (in vivo; brain),Vdu (Brain [1]; in vivo) [mL/g],fraction unbound at 5 µM (in vitro),pKa (physchem),Kp uu (in vivo; brain and plasma),Vdu (Brain [1]) [mL/g],other results
CCn1cc(C(=O)O)c(=O)c2cc(F)c(N3CCNCC3)cc21 [NORFLOXACIN],1.66,2.9,0.58,8.7,–,–,pKa [2]: 4.4
CC1(C)O[C@@H]2[C@@H](CO[C@@]3(COS(N)(=O)=O)OC(C)(C)O[C@@H]23)O1 [TOPIRAMATE],–,–,0.61,–,1.96,3.2,–
CCCC(C)C1(CC)C(=O)NC(=S)NC1=O (stereo unspecified) [THIOPENTAL],–,–,–,–,–,–,pKa [2]: 7.6
CC(C)NCC(O)COc1cccc2ccccc12 (stereo unspecified) [PROPRANOLOL],–,–,0.029,–,–,112,Compound recovery (Brain [3]): Not Active
CC(=O)O[C@H]1C(=O)[C@@]2(C)[C@H]([C@H](OC(=O)c3ccccc3)[C@]3(O)C[C@H](OC(=O)[C@H](O)[C@@H](NC(=O)c4ccccc4)c4ccccc4)C(C)=C1C3(C)C)[C@]1(OC(C)=O)CO[C@@H]1C[C@@H]2O [PACLITAXEL],–,–,0.012,–,9.03,769,–
COc1cccc(C2(O)CCCCC2CN(C)C)c1 (stereo unspecified) [TRAMADOL],2.25,4.2,0.53,9.7,–,–,–
CC(C)NCC(O)COc1cccc2[nH]ccc12 (stereo unspecified) [PINDOLOL],2.89,–,0.4,–,–,–,–
CC(C)Nc1cccnc1N1CCN(C(=O)c2cc3cc(NS(C)(=O)=O)ccc3[nH]2)CC1 [DELAVIRDINE],0.86,40,0.022,4.5,–,–,–
CC(C)(C)NC(=O)[C@@H]1C[C@@H]2CCCC[C@@H]2CN1C[C@@H](O)[C@H](Cc1ccccc1)NC(=O)[C@H](CC(N)=O)NC(=O)c1ccc2ccccc2n1,0.79,208,0.0038,6.8,–,–,Unbound brain volume of distribution (Brain [4]): Active
Clc1cccc(Cl)c1N=C1NCCN1 [CLONIDINE],2.47,5.9,0.42,8.3,–,–,–
CN1CC[C@]23c4c5ccc(O)c4O[C@H]2C(=O)CC[C@@]3(O)[C@H]1C5 [OXYMORPHONE],–,–,0.75,8.7,2.97,4,–
C=C[C@H]1C[N@@]2CC[C@H]1C[C@H]2[C@H](O)c1ccnc2ccc(OC)cc12 [QUININE],3.51,–,–,–,–,–,–
C=C[C@H]1C[N+]2(C)CC[C@H]1C[C@@H]2[C@@H](O)c1ccnc2ccc(OC)cc12,–,–,0.23,–,1.06,4.6,Compound recovery (Brain [5]): Active; Unbound brain volume of distribution (Brain [4]): Active; Compound recovery (Brain [6]): Not Active
COc1ccc2c3c1O[C@H]1[C@@H](O)C=C[C@H]4[C@@H](C2)N(C)CC[C@@]341 [CODEINE],1.99,3.2,0.62,8.4,–,–,–
NCC(CC(=O)O)c1ccc(Cl)cc1 (stereo unspecified) [BACLOFEN],–,–,0.98,9.7,1.62,1.7,pKa [2]: 3.7
Nc1c2c(nc3ccccc13)CCCC2 [TACRINE],–,22,0.16,–,–,–,–
CN(C)C(=N)N=C(N)N [METFORMIN],–,–,0.95,–,9.51,10,Compound recovery (Brain [5]): Active
CN1CC[C@]23c4c5ccc(O)c4O[C@H]2[C@@H](O[C@@H]2O[C@H](C(=O)O)[C@@H](O)[C@H](O)[C@H]2O)C=C[C@H]3[C@H]1C5 [MORPHINE GLUCURONIDE],–,–,0.87,9,0.86,0.98,pKa [2]: 4.3
C=C[C@H]1C[N@@]2CC[C@H]1C[C@@H]2[C@@H](O)c1ccnc2ccc(OC)cc12 [QUINIDINE],3.45,–,–,–,–,–,–
C[n+]1ccc(-c2ccccc2)cc1,–,–,0.49,–,77,157,Compound recovery (Brain [5]): Not Active; Compound recovery (Brain [6]): Not Active
CC[N+](CC)(CC)CC [TETRYLAMMONIUM],8.95,9,1,–,–,–,Compound recovery (Brain [5]): Active; Compound recovery (Brain [6]): Not Active
C[C@H]1COc2c(N3CCN(C)CC3)c(F)cc3c(=O)c(C(=O)O)cn1c23.C[C@H]1COc2c(N3CCN(C)CC3)c(F)cc3c(=O)c(C(=O)O)cn1c23.O [LEVOFLOXACIN],–,–,0.84,–,1.44,1.7,–
CN/C(=N/CCSCc1nc[nH]c1C)NC#N [CIMETIDINE],1.73,2.3,0.76,7,–,–,–
CN1CC[C@]23c4c5ccc(O[C@@H]6O[C@H](C(=O)O)[C@@H](O)[C@H](O)[C@H]6O)c4O[C@H]2[C@@H](O)C=C[C@H]3[C@H]1C5 [MORPHINE 3-GLUCURONIDE],–,–,0.97,–,0.58,0.6,–

Compound,Kp uu (in vivo; brain),Vdu (Brain [1]; in vivo) [mL/g],fraction unbound at 5 µM (in vitro),pKa (physchem),Kp uu (in vivo; brain and plasma),Vdu (Brain [1]) [mL/g],other results
O=C1c2c(O)ccc(O)c2C(=O)c2c(NCCNCCO)ccc(NCCNCCO)c21 [MITOXANTRONE],–,–,0.0046,8.4,8.01,1757,Compound recovery (Brain [7]): Active; pKa [2]: 3.2; Compound recovery (Brain [8]): Active; Compound recovery (Brain [9]): Active
Nc1nnc(-c2cccc(Cl)c2Cl)c(N)n1 [LAMOTRIGINE],0.96,4.6,0.21,–,–,–,–
O=C1OC2(c3ccc(O)cc3Oc3cc(O)ccc32)c2ccccc21 [FLUORESCEIN],–,1.8,0.42,–,0.74,–,–
O=C(O)Cc1ccccc1Nc1c(Cl)cccc1Cl [DICLOFENAC],–,–,0.041,–,0.61,15,–
NCC1(CC(=O)O)CCCCC1 [GABAPENTIN],–,–,–,10.5,4.55,4.6,pKa [2]: 3.9
Cc1ncc2n1-c1ccc(Cl)cc1C(c1ccccc1F)=NC2 [MIDAZOLAM],–,–,0.026,5.4,0.74,29,–
CCNC(=O)C(C(N)=O)c1ccccc1 (stereo unspecified),0.6,0.93,0.65,–,–,–,–
COc1ccc2c(c1)c(CC(=O)O)c(C)n2C(=O)c1ccc(Cl)cc1 [INDOMETHACIN],0.6,14,0.044,–,–,–,Compound recovery (Brain [5]): Active
CC(C)(C)NCC(O)COc1cccc2c1CC(O)C(O)C2 (stereo unspecified) [NADOLOL],–,–,–,9.9,–,–,–
CN(C)CCC=C1c2ccccc2CCc2ccccc21 [AMITRIPTYLINE],–,310,0.01,9.5,3.08,–,–
C=CCc1ccccc1OCC(O)CNC(C)C (stereo unspecified) [ALPRENOLOL],2.83,50,0.057,–,–,–,–
CO[C@H]1/C=C/O[C@@]2(C)Oc3c(C)c(O)c4c(O)c(c(/C=N/N5CCN(C)CC5)c(O)c4c3C2=O)NC(=O)/C(C)=C\C=C\[C@H](C)[C@H](O)[C@@H](C)[C@@H](O)[C@@H](C)[C@H](OC(C)=O)[C@@H]1C [RIFAMPIN],–,–,–,7.6,–,–,pKa [2]: 2.2
O=C(O)c1ccccc1O [SALICYLIC ACID],0.62,1,0.63,–,–,–,–
Cc1c(O)cccc1C(=O)N[C@@H](CSc1ccccc1)[C@H](O)CN1C[C@H]2CCCC[C@H]2C[C@H]1C(=O)NC(C)(C)C,–,–,0.00072,6.3,0.62,860,Compound recovery (Brain [10]): Not Active; Unbound brain volume of distribution (Brain [4]): Active
C=CCOc1ccccc1OCC(O)CNC(C)C (stereo unspecified) [OXPRENOLOL],3.25,11.8,0.28,9.7,–,–,–
CC(NC(C)(C)C)C(=O)c1cccc(Cl)c1 (stereo unspecified) [BUPROPION],–,–,–,8.6,2.66,16,–
NC12CC3CC(CC(C3)C1)C2 [AMANTADINE],2.83,9.9,0.29,–,–,–,–
CN(Cc1cnc2nc(N)nc(N)c2n1)c1ccc(C(=O)N[C@@H](CCC(=O)O)C(=O)O)cc1 [METHOTREXATE],0.61,0.68,0.89,–,–,–,–
CN(C)C(=O)C(CCN1CCC(O)(c2ccc(Cl)cc2)CC1)(c1ccccc1)c1ccccc1 [LOPERAMIDE],–,–,0.008,9,2.95,370,Unbound brain volume of distribution (Brain [4]): Active
Cc1nnc2n1-c1ccc(Cl)cc1C(c1ccccc1)=NC2 [ALPRAZOLAM],–,–,0.16,–,–,6.5,–
CN(C)C(=O)Oc1cccc([N+](C)(C)C)c1 [NEOSTIGMINE],–,–,0.95,–,3.07,3.2,Compound recovery (Brain [5]): Active; Compound recovery (Brain [6]): Not Active
CSc1ccc2c(c1)N(CCC1CCCCN1C)c1ccccc1S2 (stereo unspecified) [THIORIDAZINE],2.24,3333,0.00067,8.9,–,–,–
CO[C@@]1(NC(=O)C(C(=O)O)c2ccc(O)cc2)C(=O)N2C(C(=O)O)=C(CSc3nnnn3C)CO[C@@H]21 (stereo partly specified) [MOXALACTAM],0.46,0.46,–,–,–,–,Fu (Brain [11]): 12; pKa [2]: 2.9
O=C(O)c1cc(/N=N/c2ccc(S(=O)(=O)Nc3ccccn3)cc2)ccc1O [SULFASALAZINE],–,–,–,–,–,–,pKa [2]: 2

# Reference: ChEMBL document CHEMBL3525927, “Measurement of unbound drug exposure in brain: modeling of pH partitioning explains diverging results between the brain slice and brain homogenate methods” (Drug Metab Dispos, 2011)
